Where two headings read alike, the source gives them in different places.
Columns and labels:
[1] = in water and propylene glycol, after 90 days of storage; cited from earlier work
HaCaT cells = test: HaCaT cell viability assay for skin irritancy potential; assay type: cell-based
Procedure: Irritancy potential of the individual surfactants as well as formulation chassis (placebo formulations) were evaluated using an in house in vitro test. The method utilizes HaCaT cell viability as a marker for irritation.
Briefly, HaCaT cells were seeded in 96-well plates (Nunc 96 well plate, Cat #165305) at density of 2×10^4 cells per well, and grown overnight before treatments. Test articles were diluted in water to make 10% stock solutions, which were serially diluted in DMEM to twice to the final treatment concentrations. Cells were treated in triplicates by adding 100 μl of serially diluted test articles to each well containing 100 μl fresh medium. After incubation at 37° C., 5% CO2 for 10 minutes in the presence of diluted placebos, cells were then washed with 200 μl of DPBS with Ca^++ and Mg^++ (Life Technologies #14040133) for 3 times. CellTiter-Blue reagent (Promega, G8081, 10× stock solution) was diluted to 1× working solution in cell culture medium and added to cells (100 μl/well). Cells were incubated at 37° C., 5% CO2 for 60 minutes and the cell viability was measured using fluorescent activity (Ex. 560 nm, Em. 590 nm). All treated samples were normalized to the untreated control. Cell viabilities were then used to assess skin irritation potential.
Cell viability studies were conducted to assess the skin irritation of the formulations using Neutrogena Ultra Gentle Daily Cleanser and PanOxyl 10 (Placebo) as the comparators. The results are shown in FIG. 2 for the 2.5% BPO formulations and FIG. 3 for the 10% BPO formulations. Sodium Lauryl […] (SLS) was used as the positive control. […] All 6 formulations outperformed Neutrogena Ultra Gentle with formulation #3(2.5%) being more than 3 fold milder than Neutrogena Ultra Gentle cleanser. The 2.5% prototypes were slightly milder than the 10% formulations. This is expected due to higher concentration of the surfactants in the 10% formulations.

[2] = BPO chemical stability in wash formulations and shelf life prediction; assay type: physicochemical; details: increasing sorbitol concentrations in wash formulations
Procedure: BPO stability in the formulations of the present invention were assessed over time at 25° C./60% RH and 30° C./65% RH using environmentally controlled chambers. Specifically formulations containing 2.5% BPO or 10% BPO in glass vials were placed on stability, and monitored for BPO degradation.
Chemical stability of the BPO in surfactant based wash products is a challenge due to increased solubility of the BPO in these systems.

[3] = HaCaT cell viability, 10 minutes treatment, left = mildest, SLS positive control

Row | Compound | rank order of screened surfactants for mildness, based on EC 50 values (HaCaT cells; [3]) | also measured
1 | O=C(OOC(=O)c1ccccc1)c1ccccc1 [BPO, Benzoyl peroxide] |  | degradation of benzoyl peroxide in suspension (dispersed form) [1]: not degraded
2 | CCCCCCCCCCO[C@@H]1O[C@H](CO)[C@@H](O)[C@H](O)[C@H]1O [Plantaren 2000 N UP, decyl glucoside] | > Colonial AOS | 
3 | OC[C@@H](O)[C@@H](O)[C@H](O)[C@@H](O)CO [sorbitol, D-Sorbitol] |  | effect of humectant on BPO stability (benzoic acid generated) [2]: improve BPO stability
4 | Cocamidopropyl PG-Dimonium Chloride Phosphate [Cola Lipid C] | > SLS | 
5 | Sodium C14-C17 sec-alkyl sulfonate [Hostapur SAS 60] | SLS | 
6 | Sodium Hydroxyethylglycinate cocoglucoside crosspolymer and sodium bis-hydroxytethylglycinate lauryl glucoside crosspolymer [PolySuga Glycinate C] |  | rank order of screened surfactants for mildness, based on EC 50 values (HaCaT cells): > PolySuga Phos 1200P
7 | Sodium Laurylglucoside Hydroxypropylsufonate [Suganate 160 NC] |  | rank order of screened surfactants for mildness, based on EC 50 values (HaCaT cells): > Plantaren 2000 N UP
8 | sodium C14-16 Olefin sulfonate [Colonial AOS] | > Cola Lipid C | 

— patent US20200253914A1, “NOVEL FORMULATIONS” (priority 2015, published 2020)
